Experimental data published in publication PMC7287031 (Pharmacology Research & Perspectives, 2020).
Read-outs that look alike come from different tables or passages of the source.

Experiments:
[1] = Dog pharmacokinetic studies: plasma PK of ribociclib after single i.v. or oral dose; type: in vivo; details: male; for half-life: read-out: t½ (converted)
Description: ADME studies (including QWBA in pigmented and non‐pigmented rats) using radiolabeled ribociclib were conducted in rat and dog. Relevant institutional and national guides for the care and use of laboratory animals were followed. […]

CYP3A5 = biological target: T1, CYP3A5 (Homo sapiens, UniProt P20815); experiment: Enzyme kinetics with recombinant CYP3A5 and scaling to HLM; type: in vitro ADME
T1 construct: purchased BD Biosciences
Description: (§1) In vitro incubations were carried out in 100‐mM potassium phosphate buffer (pH 7.4) and 5‐mM MgCl2 with a total volume of 200 µL. Substrate and either human liver microsomes (HLM, BD Biosciences, mixed gender pool of n = 50) or recombinant human enzymes (BD Biosciences) were added and pre‐incubated for 3 minutes at 37°C. The reaction was started by addition of a fresh solution of NADPH (1 mmol/L final concentration). The samples were incubated at 37°C with agitation of 500 rpm. For incubations with CYP2A6, CYP2C9, CYP2C18, and CYP4A11, the phosphate buffer was replaced by TRIS buffer (100 mmol/L, pH 7.4) and for flavin‐containing monooxygenases (FMOs), a glycine buffer (50 mM, pH 9.5) was used.
(§2) The enzymatic reaction was stopped and the protein was precipitated by addition of an equal volume of methanol. After 30 min at −80°C, the samples were centrifuged at 30'000 x g for 15 min. The supernatant was withdrawn. Aliquots were analyzed by LSC and the supernatant was diluted with water to obtain a final solution containing less than 20% of the organic solvent. For samples of low substrate concentration, supernatants were evaporated to dryness under nitrogen, then re‐suspended in water containing less than 20% of methanol. Samples were analyzed by HPLC combined with radiodetection. […]

[2] = Human ADME study: safety assessments; type: in vivo; details: single oral 600 mg
Source text: Safety analysis included monitoring and recording of all adverse events, laboratory tests (ophthalmologic exam, hematology, blood chemistry, and urinalysis), vital signs, electrocardiogram, and physical examination.

CYP1A2 = biological target: T2, CYP1A2 (Homo sapiens, UniProt P05177); experiment: Enzyme kinetics with recombinant CYP1A2 and scaling to HLM; type: in vitro ADME
T2 construct: purchased BD Biosciences
T2 sequence (P05177 1-516): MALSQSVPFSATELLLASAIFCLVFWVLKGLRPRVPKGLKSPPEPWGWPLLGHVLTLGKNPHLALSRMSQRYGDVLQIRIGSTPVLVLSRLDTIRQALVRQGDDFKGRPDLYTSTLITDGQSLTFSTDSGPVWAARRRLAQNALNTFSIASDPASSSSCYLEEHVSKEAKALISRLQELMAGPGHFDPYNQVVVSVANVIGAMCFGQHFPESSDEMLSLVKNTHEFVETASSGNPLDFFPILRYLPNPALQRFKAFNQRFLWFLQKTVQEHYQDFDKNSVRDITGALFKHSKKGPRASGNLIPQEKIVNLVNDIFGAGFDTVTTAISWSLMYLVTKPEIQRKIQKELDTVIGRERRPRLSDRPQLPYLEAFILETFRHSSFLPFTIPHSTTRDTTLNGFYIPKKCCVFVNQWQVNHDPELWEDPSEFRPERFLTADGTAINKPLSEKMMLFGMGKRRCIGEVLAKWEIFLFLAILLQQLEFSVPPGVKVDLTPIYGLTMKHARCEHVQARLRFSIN
Description: as §1, §2

[3] = biological target: heat-treated human liver microsomes (Homo sapiens, UniProt P08684); experiment: Enzyme kinetics in heat-treated HLM (FMO inactivation); type: in vitro ADME; details: human, microsomes
Description: as §1, §2

[4] = system: heat-treated human liver microsomes (Homo sapiens); experiment: as above; type: in vitro ADME; details: heated vs non-heated control HLM
Description: as §1, §2

[5] = Beagle, 0.5 mg/kg, dog m (3), po, 0.5 mg base/kg
[6] = Beagle, 5 mg/kg, dog m (3), po, 5.0 mg base/kg
[7] = Beagle, dog m (4), po, 18.9 mg base/kg

T1 sequence (P20815 whole entry): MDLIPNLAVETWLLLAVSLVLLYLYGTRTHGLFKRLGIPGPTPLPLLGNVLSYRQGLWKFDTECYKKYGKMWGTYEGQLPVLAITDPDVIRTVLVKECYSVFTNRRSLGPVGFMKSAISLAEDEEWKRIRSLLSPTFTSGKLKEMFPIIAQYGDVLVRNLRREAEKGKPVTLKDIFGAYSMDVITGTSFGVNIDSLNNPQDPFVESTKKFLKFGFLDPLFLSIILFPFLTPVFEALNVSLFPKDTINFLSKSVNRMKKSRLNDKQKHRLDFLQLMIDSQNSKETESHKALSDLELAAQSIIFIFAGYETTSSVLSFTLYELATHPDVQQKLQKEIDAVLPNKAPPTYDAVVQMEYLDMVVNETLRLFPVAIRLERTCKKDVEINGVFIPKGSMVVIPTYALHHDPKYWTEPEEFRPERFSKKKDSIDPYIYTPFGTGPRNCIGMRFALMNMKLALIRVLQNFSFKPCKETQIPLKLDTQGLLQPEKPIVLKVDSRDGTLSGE
Chain of heat-treated human liver microsomes (Homo sapiens) (P08684 2-503): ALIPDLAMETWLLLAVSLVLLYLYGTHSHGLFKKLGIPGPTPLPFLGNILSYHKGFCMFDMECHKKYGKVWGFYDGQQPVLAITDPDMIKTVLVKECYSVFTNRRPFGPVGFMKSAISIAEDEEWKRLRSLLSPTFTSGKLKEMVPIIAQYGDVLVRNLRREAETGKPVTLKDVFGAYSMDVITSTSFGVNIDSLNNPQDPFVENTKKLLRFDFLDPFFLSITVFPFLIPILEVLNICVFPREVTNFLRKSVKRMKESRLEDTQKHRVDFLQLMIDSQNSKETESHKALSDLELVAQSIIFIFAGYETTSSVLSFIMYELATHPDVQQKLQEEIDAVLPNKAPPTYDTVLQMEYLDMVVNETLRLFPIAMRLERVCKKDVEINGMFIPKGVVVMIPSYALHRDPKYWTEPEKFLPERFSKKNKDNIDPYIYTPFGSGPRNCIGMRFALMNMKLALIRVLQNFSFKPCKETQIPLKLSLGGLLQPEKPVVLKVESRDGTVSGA
Chain of heat-treated human liver microsomes (P08684 2-503): as above

## CN(C)C(=O)c1cc2cnc(Nc3ccc(N4CCNCC4)cn3)nc2n1C1CCCC1 [ribociclib, Ribociclib]
[1]; [5]
  Cmax: 10.4 ng/mL
  bioavailability: 64%
[1]; Beagle, 0.5 mg/kg, dog m (3), po, 0.5 mg base/kg, AUC interval 24 h
  AUC(0-t): 155 ng·h/mL
[1]; [6]
  Cmax: 206 ng/mL
  Tmax: 1 h
  half-life: 38.8 h
[1]; Beagle, 5 mg/kg, dog m (3), po, 5.0 mg base/kg, AUC interval 168 h
  AUC(0-t): 4520 ng·h/mL
[1]; [7]
  Cmax: 1220 ng/mL
  Tmax: 1 h
  bioavailability: 87%
  half-life: 12.6 h
[1]; Beagle, dog m (4), po, 18.9 mg base/kg, AUC interval 48 h
  AUC(0-t): 21100 ng·h/mL
[1]; Beagle, iv, 0.2 mg/kg, dog m (3), 0.2 mg base/kg, AUC interval 24 h
  AUC(0-t): 105 ng·h/mL
[1]; iv, dog m (3), 0.2 mg base/kg
  clearance: 31.7 mL/min/kg
[1]; iv, dog m (3), i.v., 0.2 mg base/kg, read-out: Vss
  Vd: 27.9 L/kg
[1]; iv, dog m (3), i.v., 0.2 mg base/kg
  half-life: 18.1 h
CYP3A5; CYP3A5, share of total CYP-mediated metabolism in HLM
  fm,CYP: 1.2%
CYP3A5; CYP3A5 incubation
  fumic: 0.87
[2]; 2 subjects of six
  abdominal discomfort, share of subjects: 33.3%
[2]
  discontinuation due to an AE: no subjects discontinued
  serious adverse events (SAEs): No serious adverse events
  severity of all AEs: grade 1
  subjects with an AE suspected to be related to the study drug (headache): one subject
[2]; six healthy male subjects
  subjects who experienced at least one adverse event (AE): Five
CYP1A2; CYP1A2, share of total CYP-mediated metabolism in HLM
  fm,CYP: 1.1%
CYP1A2; CYP1A2 incubation
  fumic: 0.86
[3]
  Ki at 0.25 h: 328 µM
[4]
  FMO metabolism as share of intrinsic clearance in HLM: about 15%
